Measured values published in ChEMBL document CHEMBL3638502, “Isonicotinamide orexin receptor antagonists” (2013).

Target: T1, Orexin receptor type 2 (Homo sapiens, UniProt O43614)
T1 sequence (O43614 whole entry): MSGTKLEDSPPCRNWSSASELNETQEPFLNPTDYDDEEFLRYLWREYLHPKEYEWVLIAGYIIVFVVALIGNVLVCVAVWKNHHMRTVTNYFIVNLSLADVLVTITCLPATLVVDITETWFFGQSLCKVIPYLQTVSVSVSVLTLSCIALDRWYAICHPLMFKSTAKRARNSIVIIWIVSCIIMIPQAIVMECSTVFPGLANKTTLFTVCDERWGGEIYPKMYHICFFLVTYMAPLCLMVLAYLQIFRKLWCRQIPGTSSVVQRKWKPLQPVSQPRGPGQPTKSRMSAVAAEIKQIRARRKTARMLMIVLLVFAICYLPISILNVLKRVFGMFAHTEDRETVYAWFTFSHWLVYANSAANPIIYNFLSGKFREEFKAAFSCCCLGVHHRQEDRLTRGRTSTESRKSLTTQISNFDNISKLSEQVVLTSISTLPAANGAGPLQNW
Assay: FLIPR Ca2+ Flux Assay: Assay methodology using FLIPR Ca2+ Flux Assay (Okumura et al., Biochem. Biophys. Res. Comm. 280:976-981, 2001).
Type: functional

For `COc1ccc(CNC(=O)c2cc(-c3cncc(C)c3)ncc2-c2ccccc2)nc1OC`, the Ki was 720 pM.
